Laboratory results reported in patent US20260061080A1, “FLUORESCENT COMPOUND BASED ON NEW INDOCYANINE GREEN IR820, AND PREPARATION AND USE THEREOF” (Shanghai Fluoresoma Medical Technology Co., Ltd., priority 2023, published 2026).

Experiments:
[1] = system: breast cancer cells (MCF-7), cervical cancer cells (Hela), normal cells (CHO); conditions: 10 μL of 1 mM DMSO mother solution of probe in 2 mL culture dish; CHO vs MCF-7 and Hela; FIG. 4
Procedure: An instrument model used for cell imaging is a Leica TCS SP5 II confocal laser scanning microscope using a HC×PLAPO 63×oil objective (NA: 1.40).
The experiment was carried out in three groups, with one group using normal cells (CHO), one group using breast cancer cells (MCF-7), and one group using cervical cancer cells (Hela). Before an imaging test, a cultured cell culture solution was first sucked away, and the cells were washed once with a PBS buffer solution, and then washed once with DMEM or 1640. 10 μL of a formulated DMSO mother solution with a probe concentration of 1 mM was measured and added into a 2 mL culture dish containing a fresh DMEM or 1640 culture medium. After culture was completed, the excessive culture solution was first removed, the cells were washed with a PBS buffer solution (pH 7.4) to remove an excessive probe, and then the imaging test was carried out on the cells separately using a confocal fluorescence microscope.

[2] = system: tumor sites of tumor-bearing mice; assay: Fluorescence imaging of IR820-cRGD in living tumor-bearing mice; format: in vivo; conditions: tail vein injection, solution in pure water at 10 μM (or equal equivalent probe concentration), observed 2 hours later; FIG. 5
Procedure: Three tumor-bearing mice were administered with an IR820-cRGD solution in pure water at a concentration of 10 μM, a […] solution in pure water at an equal equivalent probe concentration, and an IR820 solution in pure water at an equal equivalent probe concentration through tail vein injection, respectively. 2 hours later, tumor sites of the mice were observed using an in vivo imaging instrument for small animals to obtain imaging situations.

SMILES	fluorescence signal in cells (selectivity for tumor cells) [1]	fluorescence signal at the tumor site [2]
CC1(C)C(/C=C/C2=C(Oc3ccc(CCC(=O)NCCCC[C@@H]4NC(=O)[C@@H](Cc5ccccc5)NC(=O)[C@H](CC(=O)O)NC(=O)CNC(=O)[C@H](CCCNC(=N)N)NC4=O)cc3)C(=C/C=C3/N(CCCCS(=O)(=O)O)c4ccc5ccccc5c4C3(C)C)/CCC2)=[N+](CCCCS(=O)(=O)O)c2ccc3ccccc3c21 [IR820-cRGD]	greater selective fluorescence signals for the tumor cells	highly bright fluorescence signal
CC1(C)C(/C=C/C2=C(Cl)C(=C/C=C3/N(CCCCS(=O)(=O)[O-])c4ccc5ccccc5c4C3(C)C)/CCC2)=[N+](CCCCS(=O)(=O)O)c2ccc3ccccc3c21 [IR820]	–	weak fluorescence signal
